This note sets out measurements from patent publication US20220096421A1, “Active Ingredient, Pharmaceutical Composition, and Medicinal Product for HIV and AIDS Therapy” (priority 2019, published 2022).

Structures are written as SMILES. “Also recorded” adds a separate entry of the source. Where two headings read alike, the source gives them in different places.

The subject of one series is HIV-1. Briefly: Efficacy, safety and optimal dosage study in previously untreated HIV-1-infected patients versus Efavirenz. To be noted: for development of HIV-1 resistance: patients, at the studied doses; for viral load decrease: week 12; for viral load decrease / viral load change: 20 mg MMSCs of formula Ib, 600 mg Efavirenz; for viral load change: week 24. On the procedure:
Doses of 20 mg/day (60 patients) and 40 mg/day (60 patients) of MMSCs of formula Ib were studied versus 600 mg/day of Efavirenz (30 patients).
Doses of 20.7 mg/day (60 patients) and 41.4 mg/day (60 patients) of MMSCs of formula Ib were studied in comparison with Efavirenz (600 mg/day, 30 patients).

Series [1] can be described thus: Clinical trial in healthy volunteers, pharmacokinetics with daily administration of capsules. To be noted: constant administration, average.
Description: The concentration-time pattern of metabolite Ia in the blood was evaluated by its content in the plasma and blood cells.
Series [2] in a line: Pharmacokinetics in healthy volunteers with repeated weekly administration. It counts as in vivo, human. To be noted: for Cmax / concentration at 168 h: human, in vivo, oral; for Cmax: read-out: Cmax of active metabolite Ia in the first week; for concentration at 168 h: read-out: concentration of active metabolite Ia a week later (168 hours).

As for `O=C1Nc2ccc(Cl)cc2[C@@](C#CC2CC2)(C(F)(F)F)O1` [Efavirenz, reference compound], in the series on HIV-1, the “development of HIV-1 resistance” value is reported as “No development of HIV-1 resistance was established; also recorded: has not been established”, the viral load decrease is on record as −2.7±1.0 and the viral load change was −3.3±0.8.

`N#Cc1cc(Cl)cc(Oc2c(Br)ccc(CC(=O)Nc3ccc(S(N)(=O)=O)cc3Cl)c2F)c1` [Ia]: the “time of dosing to maximum plasma concentration of active metabolite Ia” value came to 9.8 days in series [1] (10 mg/day), 7.5 days in series [1] (20 mg/day) and 6.7 days in series [1] (30 mg/day). For the same molecule, the “time to maximum concentration of active metabolite Ia in the first week” value in series [2] (41.4, 82.8 or 124.2 mg/week, after taking the drug) is recorded as “approximately 5.5 hours”. In addition, the results for the maximum concentration (Cmax) in series [2] (41.4 mg/week), in series [2] (82.8 mg/week) and in series [2] (124.2 mg/week) were 34.5 ng/mL, 63.6 ng/mL and 117 ng/mL, respectively. Moreover, the concentration at 168 h amounted to 26.1 ng/mL in series [2] (41.4 mg/week), 36.9 ng/mL in series [2] (82.8 mg/week) and 57.2 ng/mL in series [2] (124.2 mg/week).

As to `CCC(=O)[N-]S(=O)(=O)c1ccc(NC(=O)Cc2ccc(Br)c(Oc3cc(Cl)cc(C#N)c3)c2F)c(Cl)c1.[Na+]` [MMSCs of formula Ib, sodium {[4-({[4-bromo-3-(3-chloro-5-cyanophenoxy)-2-fluorophenyl]acetyl}amino)-3-chlorophenyl]-sulfonyl}(propanoyl)azanide], the “occurrence of a viral load reduction of 10 times and more” value in the series with HIV-1 (20 mg versus Efavirenz 600 mg, p=0.053) was “tendency for a statistical difference”. In the series with HIV-1 (20 versus 40 mg/day groups, p=0.804), the “efficacy difference between the MMSCs of formula Ib therapy groups” value is given as “did not differ in effectiveness; also recorded: did not differ in efficacy”. Further, the serious adverse events entry with HIV-1 (HIV-1-infected patients) was “No serious adverse events were observed”. Moreover, in the series with HIV-1 (doses of 20 and 40 mg, over a period of 12 weeks, versus Efavirenz 600 mg/day), the “effectiveness in reducing the viral load to <400 copies/ml” value is reported as “not inferior to Efavirenz”. Further, the “advantage of the 20 mg group over the Efavirenz 600 mg group” value with HIV-1 (p=0.0237) is listed as “statistically significant”. Besides, in the series on HIV-1, the “development of HIV-1 resistance” value was “No development of HIV-1 resistance was established; also recorded: has not been established”, the viral load decrease is given as −2.8±0.7 and the viral load change was −3.3±0.7. In addition, the “frequency of achieving an undetectable HIV-1 RNA level” value with HIV-1 (week 36, versus Efavirenz, p=0.408) was “did not statistically differ; also recorded: did not differ statistically”.

By Cmax is commonly meant the peak of the concentration-time curve.
